Measured values: patent publication US20230295088A1, “INSULIN SENSITIZERS FOR THE TREATMENT OF DIABETES MELLITUS” (University of Iowa Research Foundation, priority 2020, published 2023)
Entries after “also recorded” stand apart in the source; their conditions may differ.

Key:
[1] = test system: diet-induced obese (DIO) mice; experiment: Glucose tolerance, fasting glucose and insulin in diet-induced obese (DIO) insulin-resistant mice; type: in vivo, mouse; conditions: DIO mice, C59 treatment
Description: To test whether C3 improves glucose handling, WT mice were made insulin-resistant by feeding them a high fat diet (HFD) for a period of 10 weeks. After 10 weeks, mice were injected with vehicle. C3 (20 mg/kg), or the TZD rosiglitazone (20 mg/kg) for 2 weeks while remaining on the HFD. […] To further test the in vivo efficacy of C3, a glucose tolerance test (GTT) was perfromed.
To test whether C3 improves glucose handling, lean mice were injected with vehicle or C3 30 minutes before performing a glucose tolerance test. […] To further determine if C3 can reverse glucose intolerance, WT mice were made insulin-resistant by feeding them a high fat diet (HFD) for a period of 10 weeks. Diet induced obese (DIO) mice were then injected with vehicle or C3 for 2 weeks while remaining on HFD.

Unc119b = target: T1, Unc119b (Homo sapiens, UniProt A6NIH7); experiment: Luminescence complementation based thermal shift assay, Unc119b-HiBiT; type: binding; conditions: crude extract of Unc119b-HiBiT transfected cells, 10 minutes incubation, heated 3 minutes
T1 construct: expressed in transfected cells
Excerpt: (§1) Identification of the molecular target of C59. Since the discovery of C59 as an insulin sensitizer was achieved using a phenotypic screen, the molecular target of the compound was unknown. To identify the target, a Proteome Integral Solubility Alteration (PISA) assay was used. […] To measure the shift in thermal stability, constructs coding for Unc119-HiBiT and Unc119b-HiBit were generated, thus allowing the quantitative detection of those proteins by adding LgBiT and furimazin to the lysates and measuring luminescence. Crude extract from cells transfected with Unc119-HiBiT or Unc119b-HiBiT, were incubated with DMSO or C59 for 10 minutes, aliquoted, heated for 3 minutes at the indicated temperature and allowed to cool down to room temperature before adding LgBiT and furimazin and reading luminescence on a plate reader.

[2] = test system: GLUT4 translocation in HBG4 mice; experiment: In vivo GLUT4 translocation in HBG4 mice (IVIS luminescence); design: species or system mouse; conditions: DIO HBG4 mice treated for 2 weeks, insulin 10 minutes before substrate
Description: C3 potentiates insulin action in primary adipocytes and in live mice. Using HBG4 mice, insulin stimulated GLUT4 translocation of endogenous GLUT4 was measured in primary skeletal muscle fibers and primary adipocytes. Enhancement of insulin-stimulated translocation of endogenous GLUT4 was also shown in primary adipocytes in the presence of C3. In parallel dishes, increased insulin-stimulated glucose uptake in HBG4 primary adipocyte treated with C3 was found. […] To determine if the HBG4 mouse can be used to measure GLUT4 translocation in vivo, HBG4 mice were pretreated with daily IP injections of vehicle or 50 mg/Kg C3 for 3 days. On the day of the experiment, mice were injected with vehicle or insulin IP followed by a subcutaneous injection of LgBiT and substrate around the leg muscles. Mice were then anesthetized and placed into an IVIS system to measure luminescence. […] Baseline signal was detected in vehicle and C3 treated HBG4 mice. […]
DIO HBG4 mice were treated with vehicle or C59 for 2 weeks and injected i.v. with an adenovirus coding for a secreted form of LgBiT (allowing LgBiT production and secretion predominantly by the liver into the circulation) 2 days prior to the experiment. Animal were then injected with saline or insulin 10 minutes before i.v. injection of substrate and luminescence imaging using an IVIS system.

Unc119 = target: T2, Unc119 (Homo sapiens, UniProt Q13432); experiment: Luminescence complementation based thermal shift assay, Unc119-HiBiT; type: binding; conditions: crude extract of Unc119-HiBiT transfected cells, 10 minutes incubation, heated 3 minutes
T2 construct: expressed in transfected cells
Excerpt: as §1

[3] = test system: GLUT4 translocation in C2C12 myoblast cell line stably expressing HiBiT-GLUT4 (HBG4); experiment: HiBiT (NanoBit) luminescence GLUT4 translocation assay in HBG4 C2C12 cells; type: cell-based, mouse
Excerpt: An assay was used to identify potentiators of insulin-stimulated GLUT4 translocation. In one embodiment, the assay employs Nanobit technology. This technology is based on the recombination of two complementary fragments, HiBiT and LgBiT, of the Nanoluc luciferase. HiBit was fused to an extracellular region of GLUT4 to allow for the rapid quantitation of its the surface density in live cells by adding the reconibinantly produced complementary fragment LgBiT and the luciferase substrate. Since LgBiT is not membrane permeant, only proteins at the plasma membrane are quantified. To measure GLUT4 translocation, a stable C2C12 myoblast cell line was prepared by expressing a HiBiT-tagged mouse GLUT4. […] The Chembridge Diverset library of 49,600 compounds was screened and 1264 hits were identified. A subset of those hits were selected and retested in the presence and absence of insulin.
Development of a HTS assay for real-time measurement of GLUT4 translocation. To measure GLUT4 translocation in a homogenous and HIS amenable manner, NanoBit technology was used. This technology relies on the rapid recombination of 2 fragments of the Nanoluc luciferase (HiBit and LgBiT) with high affinity for each other. Fragments have no enzymatic activity on their own but generate a bright luminescent signal when recombined. A C2C12 myoblast cell line was prepared that stably expressed HiBiT-GLUT4 (HBG4), in which the small 11 amino acid HiBiT fragment was inserted into the first extracellular loop of GLUT4. A C-terminal mCherry was also added for microscopic detection. The C2C12 line was chosen as an in vitro model because it is derived from skeletal myoblasts and translocate GLUT4 in response to insulin. Detection of plasma membrane density of HBG4 is achieved by adding recombinant LgBit and substrate to live cells. The assay can be conducted as an endpoint where cells are incubated with insulin before measuring luminescence or as a kinetic assay by adding LgBiT and substrate at the beginning of the experiment and monitor real-time insulin-stimulated GLUT4 translocation.
An assay to measure GLUT4 translocation in a homogenous and HIS amenable manner using NanoBit technology was developed. This technology relies on the rapid recombination of 2 fragments of the Nanoiuc luciferase (HiBit and LgBiT) with high affinity for each other. Fragments have no enzymatic activity on their own but generate a bright luminescent signal when recombined. A C2C12 myoblast cell line stably expressing HiBiT-GLUT4 (HBG4), in which the small 11 amino acid HiBiT fragment was inserted into the first extracellular loop of GLUT4 was prepared. A C-terminal mCherry was also added for microscopic detection (FIGS. 1A and B). The C2C12 line was chosen as an in-vitro model because it is derived from skeletal myoblasts and translocates GLUT4 in response to insulin. Detection of plasma membrane density of HBG4 is achieved by adding recombinant LgBit and substrate to live cells (FIG. 1C). The assay can be conducted as a kinetic assay by adding LgBiT and substrate at the beginning of the experiment and monitoring real-time insulin-stimulated GLUT4 translocation (FIGS. 1D and E).

T1 sequence (A6NIH7 whole entry, species assumed): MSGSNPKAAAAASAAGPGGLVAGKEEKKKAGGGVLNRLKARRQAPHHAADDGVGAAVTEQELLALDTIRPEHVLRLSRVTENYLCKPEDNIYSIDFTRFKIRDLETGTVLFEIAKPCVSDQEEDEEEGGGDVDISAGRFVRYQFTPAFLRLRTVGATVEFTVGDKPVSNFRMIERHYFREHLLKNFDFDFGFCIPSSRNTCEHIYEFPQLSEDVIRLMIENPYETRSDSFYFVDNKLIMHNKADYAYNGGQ

O=C(Nc1ccc(Cl)c(Cl)c1)C12CC3CC(CC(C3)C1)C2 [Compound C59]
glucose handling in DIO mice [1]: drastically improves | thermostability shift for Unc119b (Unc119b): 6.7 C. | insulin-stimulated GLUT4 translocation in vivo [2]: very significantly improved | thermostability shift for Unc119 (Unc119): 6.6 C. | EC50 ([3]; Mus musculus, HBG4 C2C12 cells, with insulin, read-out: potency (enhancement of insulin effect on GLUT4 translocation)): 2.5 µM | efficacy compared with C3 ([3]; enhancement of insulin effect on GLUT4 translocation): higher; also recorded: improved efficacy | insulin-stimulated GLUT4 translocation ([3]; in the presence of insulin, WT HBG4 C2C12 cells): enhanced; also recorded: retained activity; also recorded: increased
